Data reported in patent US20220402950A1, “SUBSTITUTED BENZIMIDAZOLES AS PAD4 INHIBITORS” (BRISTOL-MYERS SQUIBB COMPANY, priority 2018, published 2022).

What follows are compounds tested against human PAD4 (hPAD4) (Homo sapiens, UniProt Q9UM07) (assay: RFMS Human PAD4 Functional Assay). Conditions: hPAD4 RFMS IC50, human PAD4, rapid-fire mass spectrum (RFMS) assay; 5 nM hPAD4, 250 μM BAEE.
Type: biochemical
In short: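 RapidFire ESI-MS quantification, normalised to a modified-citrulline internal standard, after phenyl glyoxal (final 4 mM) derivatisation of the TCA-quenched reaction. The enzyme (10 nM) sat 30 min with compound (up to 50 μM final) before 500 μM BAEE (as added) started a 90 min, 37 °C reaction. Buffer: HEPES pH 7.5, 50 μM calcium, 5 μM TPEN.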

Sequence of human PAD4 (hPAD4) (Q9UM07 whole entry): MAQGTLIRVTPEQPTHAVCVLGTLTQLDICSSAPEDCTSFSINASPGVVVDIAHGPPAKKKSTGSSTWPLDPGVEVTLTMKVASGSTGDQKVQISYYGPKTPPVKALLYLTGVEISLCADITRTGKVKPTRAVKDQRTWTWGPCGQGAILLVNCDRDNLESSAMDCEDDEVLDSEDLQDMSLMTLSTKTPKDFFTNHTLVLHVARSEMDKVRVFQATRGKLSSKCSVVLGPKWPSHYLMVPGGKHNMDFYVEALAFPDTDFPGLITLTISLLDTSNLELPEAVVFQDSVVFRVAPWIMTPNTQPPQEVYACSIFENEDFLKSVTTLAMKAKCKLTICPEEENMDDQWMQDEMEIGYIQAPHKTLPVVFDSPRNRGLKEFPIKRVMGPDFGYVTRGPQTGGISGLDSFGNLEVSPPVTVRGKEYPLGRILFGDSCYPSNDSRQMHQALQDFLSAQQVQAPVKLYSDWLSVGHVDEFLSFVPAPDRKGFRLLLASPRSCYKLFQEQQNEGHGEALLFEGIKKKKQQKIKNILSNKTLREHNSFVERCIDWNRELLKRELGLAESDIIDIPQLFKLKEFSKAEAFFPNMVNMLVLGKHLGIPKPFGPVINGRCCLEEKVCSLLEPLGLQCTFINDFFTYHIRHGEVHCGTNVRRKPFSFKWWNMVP

Q: How did the IC50 turn out when COc1cc(C(=O)N2C[C@H]3CC[C@@H]2[C@@H]3N)cc2nc(-c3cc4cccc(C5CCN(C(=O)Nc6ccncc6)CC5)c4n3CC3CC3)n(C)c12 [Example 245, 4-(2-(5-((1R,4R,7R)-7-amino-2-azabicyclo[2.2.1]heptane-2-carbonyl)-7-methoxy-1-methyl-1H-benzo[d]imidazol-2-yl)-1-(cyclopropylmethyl)-1H-indol-7-yl)-N-(pyridin-4-yl)piperidine-1-carboxamide] was run?
A: 13 nM

Q: COc1cc(C(=O)N2C[C@H]3CC[C@@H]2[C@@H]3N)cc2nc(-c3cc4cccc(C5CCC(N)CC5)c4n3CC3CC3)n(C)c12 (stereo partly drawn) [Example 13, (1R,4R,7R)-2-{2-[7-(4-aminocyclohexyl)-1-(cyclopropylmethyl)-1H-indol-2-yl]-7-methoxy-1-methyl-1H-1,3-benzodiazole-5-carbonyl}-2-azabicyclo[2.2.1]heptan-7-amine] was tested. Which IC50 did it give?
A: 16 nM

Q: How did the IC50 turn out when COc1cc(C(=O)N2C[C@H]3CC[C@@H]2[C@@H]3N)cc2nc(-c3cc4cccc(C5CC(C(N)=O)C5)c4n3CC3CC3)n(C)c12 (single isomer, unassigned) [Example 46] was run?
A: 13 nM

Q: How did the IC50 turn out when COc1cc(C(=O)N2C[C@H](N)C[C@@H](F)C2)cc2nc(-c3cc4cccc(C5CC(C(=O)N6CCCC6)C5)c4n3CC3CC3)n(C)c12 (single isomer, unassigned) [Example 115] was run?
A: 64 nM

Q: How did the IC50 turn out when COc1cc(C(=O)N2C[C@H]3CC[C@@H]2[C@@H]3N)cc2nc(-c3cc4cccc(Nc5cnn(CC(F)F)c5)c4n3CC3CC3)n(C)c12 [Example 175, ((1R,4R,7R)-7-amino-2-azabicyclo[2.2.1]heptan-2-yl)(2-(1-(cyclopropylmethyl)-7-((1-(2,2-difluoroethyl)-1H-pyrazol-4-yl)amino)-1H-indol-2-yl)-7-methoxy-1-methyl-1H-benzo[d]imidazol-5-yl)methanone] was run?
A: 66 nM

Q: Which IC50 does the source give for COc1cc(C(=O)N2C[C@H]3CC[C@@H]2[C@@H]3N)cc2nc(-c3cc4cccc(CC5CCNCC5)c4n3CC3CC3)n(C)c12 [Example 10, (1R,4R,7R)-2-{2-[1-(cyclopropylmethyl)-7-[(piperidin-4-yl)methyl]-1H-indol-2-yl]-7-methoxy-1-methyl-1H-1,3-benzodiazole-5-carbonyl}-2-azabicyclo[2.2.1]heptan-7-amine] here?
A: 128 nM

Q: How did the IC50 turn out when COC(=O)N1CC(c2cccc3cc(-c4nc5cc(C(=O)N6C[C@H]7CC[C@@H]6[C@@H]7N)cc(OC)c5n4Cc4cnn(C)c4)n(CC4CC4)c23)C1 [Example 213, methyl 3-(2-(5-((1R,4R,7R)-7-amino-2-azabicyclo[2.2.1]heptane-2-carbonyl)-7-methoxy-1-((1-methyl-1H-pyrazol-4-yl)methyl)-1H-benzo[d]imidazol-2-yl)-1-(cyclopropylmethyl)-1H-indol-7-yl)azetidine-1-carboxylate] was run?
A: 21 nM

Q: COc1cc(C(=O)N2C[C@H]3CC[C@@H]2[C@@H]3N)cc2nc(-c3cc4cccc(Nc5cn(C)nc5C)c4n3CC3CC3(F)F)n(C)c12 (stereo partly drawn) [Example 178, ((1R,4R,7R)-7-amino-2-azabicyclo[2.2.1]heptan-2-yl)(2-(1-((2,2-difluorocyclopropyl)meth-yl)-7-((1,3-dimethyl-1H-pyrazol-4-yl)amino)-1H-indol-2-yl)-7-methoxy-1-methyl-1H-benzo[d]imidazol-5-yl)methanone] was tested. Which IC50 did it give?
A: 56 nM

Q: Which IC50 does the source give for COc1cc(C(=O)N2C[C@H]3CC[C@@H]2[C@@H]3N)cc2nc(-c3cc4cccc(-c5ccc6c(c5)C(C)(O)C(=O)N6)c4n3CC3CC3)n(C)c12 (stereo partly drawn) [Example 192, 5-(2-(5-((1R,4R,7R)-7-amino-2-azabicyclo[2.2.1]heptane-2-carbonyl)-7-methoxy-1-methyl-1H-benzo[d]imidazol-2-yl)-1-(cyclopropylmethyl)-1H-indol-7-yl)-3-hydroxy-3-methylindolin-2-one] here?
A: 28 nM

Q: Which IC50 does the source give for COc1cc(C(=O)N2C[C@H]3CC[C@@H]2[C@@H]3N)cc2nc(-c3cc4cccc(-c5cccc(C(O)CO)c5)c4n3CC3CC3)n(C)c12 (stereo partly drawn) [Example 222, ((1R,4R,7R)-7-amino-2-azabicyclo[2.2.1]heptan-2-yl)(2-(1-(cyclopropylmethyl)-7-(3-(1,2-dihydroxyethyl)phenyl)-1H-indol-2-yl)-7-methoxy-1-methyl-1H-benzo[d]imidazol-5-yl)methanone] here?
A: 94 nM

Q: With COc1cc(C(=O)N2C[C@H]3CC[C@@H]2[C@@H]3N)cc2nc(-c3cc4cccc(CCC#N)c4n3CC3CC3)n(C)c12 [Example 19, 3-(2-{5-[(1R,4R,7R)-7-amino-2-azabicyclo[2.2.1]heptane-2-carbonyl]-7-methoxy-1-methyl-1H-1,3-benzodiazol-2-yl}-1-(cyclopropylmethyl)-1H-indol-7-yl)propanenitrile] as the compound, how does the IC50 read?
A: 90 nM

Q: Which IC50 does the source give for COc1cc(C(=O)N2C[C@H](N)C[C@@H](F)C2)cc2nc(-c3cc4cccc(C5CC(C(N)=O)C5)c4n3CC3CC3)n(C)c12 (single isomer, unassigned) [Example 114] here?
A: 81 nM

Q: With COc1cc(C(=O)N2C[C@H]3CC[C@@H]2[C@@H]3N)cc2nc(-c3cc4cccc(CC5CCOCC5)c4n3CC3CC3)n(C)c12 [Example 31, (1R,4R,7R)-2-{2-[1-(cyclopropylmethyl)-7-[(oxan-4-yl)methyl]-1H-indol-2-yl]-7-methoxy-1-methyl-1H-1,3-benzodiazole-5-carbonyl}-2-azabicyclo[2.2.1]heptan-7-amine] as the compound, how does the IC50 read?
A: 198 nM

Q: How did the IC50 turn out when COc1cc(C(=O)N2C[C@H]3CC[C@@H]2[C@@H]3N)cc2nc(-c3cc4cccc(-c5cc[nH]n5)c4n3CC3CC3(Cl)Cl)n(C)c12 (stereo partly drawn) [Example 152, ((1R,4R,7R)-7-amino-2-azabicyclo[2.2.1]heptan-2-yl)(2-(1-((2,2-dichlorocyclopropyl)meth-yl)-7-(1H-pyrazol-3-yl)-1H-indol-2-yl)-7-methoxy-1-methyl-1H-benzo[d]imidazol-5-yl)methanone] was run?
A: 127 nM

Q: With COc1cc(C(=O)N2C[C@H]3CC[C@@H]2[C@@H]3N)cc2nc(-c3cc4cccc(Nc5c(C)nn(C)c5C)c4n3CC3CC3C)n(C)c12 (stereo partly drawn) [Example 180, ((1R,4R,7R)-7-amino-2-azabicyclo[2.2.1]heptan-2-yl)(7-methoxy-1-methyl-2-(1-((2-methylcyclopropyl)meth-yl)-7-((1,3,5-trimethyl-1H-pyrazol-4-yl)amino)-1H-indol-2-yl)-1H-benzo[d]imidazol-5-yl)methanone] as the compound, how does the IC50 read?
A: 27 nM

Q: With COc1cc(C(=O)N2C[C@H]3CC[C@@H]2[C@@H]3N)cc2nc(-c3cc4cccc(C5CCN(C(=O)Nc6ccc(F)cc6)CC5)c4n3CC3CC3)n(C)c12 [Example 241, 4-(2-(5-((1R,4R,7R)-7-amino-2-azabicyclo[2.2.1]heptane-2-carbonyl)-7-methoxy-1-methyl-1H-benzo[d]imidazol-2-yl)-1-(cyclopropylmethyl)-1H-indol-7-yl)-N-(4-fluorophenyl)piperidine-1-carboxamide] as the compound, how does the IC50 read?
A: 28 nM

Q: With C#CCOCC(O)Cn1cc(-c2cccc3cc(-c4nc5cc(C(=O)N6CC7CCC6[C@@H]7N)cc(OC)c5n4C)n(CC4CC4)c23)cn1 (stereo partly drawn) [Example 128, ((7R)-7-amino-2-azabicyclo[2.2.1]heptan-2-yl)(2-(1-(cyclopropylmethyl)-7-(1-(2-hydroxy-3-(prop-2-yn-1-yloxy)propyl)-1H-pyrazol-4-yl)-1H-indol-2-yl)-7-methoxy-1-methyl-1H-benzo[d]imidazol-5-yl)methanone] as the compound, how does the IC50 read?
A: 130 nM

Q: Which IC50 does the source give for COc1cc(C(=O)N2C[C@H]3CC[C@@H]2[C@@H]3N)cc2nc(-c3cc4cccc(Cl)c4n3CC3CC3)n(C)c12 [Example 145, ((1R,4R,7R)-7-amino-2-azabicyclo[2.2.1]heptan-2-yl)(2-(7-chloro-1-(cyclopropylmethyl)-1H-indol-2-yl)-7-methoxy-1-methyl-1H-benzo[d]imidazol-5-yl)methanone] here?
A: 123 nM

Q: COc1cc(C(=O)N2C[C@H]3CC[C@@H]2[C@@H]3N)cc2nc(-c3cc4cccc(C5CN(C(=O)CO)C5)c4n3CC3CC3)n(C)c12 [Example 82, 1-[3-(2-{5-[(1R,4R,7R)-7-amino-2-azabicyclo[2.2.1]heptane-2-carbonyl]-7-methoxy-1-methyl-1H-1,3-benzodiazol-2-yl}-1-(cyclopropylmethyl)-1H-indol-7-yl)azetidin-1-yl]-2-hydroxyethan-1-one] was tested. Which IC50 did it give?
A: 10 nM

Q: How did the IC50 turn out when COc1cc(C(=O)N2C[C@H]3CC[C@@H]2[C@@H]3N)cc2nc(-c3cc4cccc(C5CCNCC5)c4n3CC3CC3)n(C)c12 [Example 4, (1R,4R,7R)-2-{2-[1-(cyclopropylmethyl)-7-(piperidin-4-yl)-1H-indol-2-yl]-7-methoxy-1-methyl-1H-1,3-benzodiazole-5-carbonyl}-2-azabicyclo[2.2.1]heptan-7-amine] was run?
A: 30 nM

Q: COc1cc(C(=O)N2C[C@H]3CC[C@@H]2[C@@H]3N)cc2nc(-c3cc4cccc(CCCCCN)c4n3CC3CC3)n(C)c12 [Example 16, (1R,4R,7R)-2-{2-[7-(5-aminopentyl)-1-(cyclopropylmethyl)-1H-indol-2-yl]-7-methoxy-1-methyl-1H-1,3-benzodiazole-5-carbonyl}-2-azabicyclo[2.2.1]heptan-7-amine] was tested. Which IC50 did it give?
A: 39 nM

Q: For COc1cc(C(=O)N2C[C@H]3CC[C@@H]2[C@@H]3N)cc2nc(-c3cc4cccc(-c5cnc(C(N)=O)c(F)c5)c4n3CC3CC3)n(C)c12 [Example 199, 5-(2-(5-((1R,4R,7R)-7-amino-2-azabicyclo[2.2.1]heptane-2-carbonyl)-7-methoxy-1-methyl-1H-benzo[d]imidazol-2-yl)-1-(cyclopropylmethyl)-1H-indol-7-yl)-3-fluoropicolinamide], which IC50 is on record?
A: 159 nM

Same assay, conditions: human PAD4, rapid-fire mass spectrum (RFMS) assay; 5 nM hPAD4, 250 μM BAEE; read-out: hPAD4 RFMS IC50

Q: Which IC50 does the source give for COc1cc(C(=O)N2C[C@H]3CC[C@@H]2[C@@H]3N)cc2nc(-c3cc4cccc(C5CC(NC(C)=O)C5)c4n3CC3CC3)n(C)c12 (single isomer, unassigned) [Example 59] here?
A: 59 nM

Q: Which IC50 does the source give for COc1cc(C(=O)N2C[C@H]3CC[C@@H]2[C@@H]3N)cc2nc(-c3cc4cccc(C5=CCNCC5)c4n3CC3CC3)n(C)c12 [Example 84] here?
A: 34 nM
